Molecules are shown by their SMILES. Several values for one entry are separate records, joined by “and”; a condition that tells them apart may be missing. Identical values can stand only once. Numbered stars: 1 amine (or outer) side, 2 acyl side, 3 side chain; on linkers, the order of the positions; unused ones are H or OH. Bridge positions count the residues as written; N and C are the ends. Square brackets hold non-standard residues; d marks the D form. Peptide text beside a SMILES is read from it. I, II: the chains in the order shown. Actinocin(1to9) = Cc1c2oc3c(C)ccc(C(=O)[*:2])c3nc-2c(C(=O)[*:1])c(N)c1=O; NMeV = CN[C@H](C(=O)O)C(C)C; Sar = CNCC(=O)O

We go through seven molecules from ChEMBL document CHEMBL1158035, “Actinomycins with altered threonine units in the beta-peptidolactone” (2006).

One assay relates to Escherichia coli. The assay can be described thus: Antimicrobial activity against Escherichia coli at 50 ug after 24 hrs by disk diffusion method. Type of assay: functional. The following applies: read-out: IZ. (In general: Agar diffusion results depend on both activity and mobility in agar.)
A further assay concerns Bacillus subtilis. In words: Antimicrobial activity against Bacillus subtilis at 50 ug after 24 hrs by disk diffusion method. It counts as functional. The following applies: read-out: IZ.
Assay [1] is described as follows: (§1) Cytotoxicity against human Hep G2 cells. It counts as functional, HepG2.
The nature of assay [2]: Cytotoxicity against human HM02 cells. Type of assay: functional.
Another assay deals with Staphylococcus aureus. The assay can be described thus: Antimicrobial activity against Staphylococcus aureus at 50 ug after 24 hrs by disk diffusion method. It counts as functional. As to conditions: read-out: IZ.
Assay [3] in a line: as §1. It counts as functional. The following applies: HepG2.

In the case of `Cc1c2oc3c(C)ccc(C(=O)N[C@@H]4C(=O)N[C@H](C(C)C)C(=O)N5[C@H](C(=O)N(C)CC(=O)N(C)[C@@H](C(C)C)C(=O)O[C@@H]4C)[C@@H](O)C[C@@H]5C)c3nc-2c2c(c1=O)OC[C@H]1OC(=O)[C@H](C)N(C)C(=O)CN(C)C(=O)[C@@H]3CCCN3C(=O)[C@@H](C(C)C)NC(=O)[C@H]1NC2=O` [ACTINOMYCIN G5], the zone of inhibition at 50 µg/disc turned out to be 0 mm with Escherichia coli, 20 mm in the assay with Bacillus subtilis and 10 mm with Staphylococcus aureus. For the same molecule, the GI50 – broadly, the concentration giving 50% growth inhibition – in assay [1] (Homo sapiens, HepG2) was 2700 nM; in assay [2] (Homo sapiens, HM02) it was 2100 nM; in assay [3], 1400 nM. In addition, the TGI (in general, the concentration giving total growth inhibition) in assay [1] (Homo sapiens, HepG2) amounted to 7800 nM; in assay [2] (Homo sapiens, HM02), 4400 nM; in assay [3], 2500 nM.
In the case of `Nc1cc2nc3ccccc3oc-2cc1=O`, the concentration for 50% growth inhibition (GI50) in assay [1] (Homo sapiens, HepG2) is 6600 nM; in assay [2] (Homo sapiens, HM02), 4450 nM; in assay [3] it was 610 nM. Further, the TGI in assay [1] (Homo sapiens, HepG2) was determined as 26000 nM; in assay [2] (Homo sapiens, HM02), 10000 nM; in assay [3], 2000 nM.
On to `Cc1c2oc3c(C)ccc(C(=O)N[C@@H]4C(=O)N[C@H](C(C)C)C(=O)N5[C@H](C(=O)N(C)CC(=O)N(C)[C@@H](C(C)C)C(=O)O[C@@H]4C)[C@@H](O)C[C@@H]5C)c3nc-2c(C(=O)OC[C@H](O)[C@@H]2NC(=O)[C@H](C)N(C)C(=O)CN(C)C(=O)[C@@H]3CCCN3C(=O)[C@@H](C(C)C)NC2=O)c(N)c1=O` [ACTINOMYCIN G6], for which the zone of inhibition at 50 µg/disc with Escherichia coli, in the assay with Bacillus subtilis and with Staphylococcus aureus was 0 mm in each case. For the same molecule, the TGI in assay [1] was 1600 nM and > 7900 nM; in assay [2] it was 2000 nM; in assay [2] (Homo sapiens, HM02), 1000 nM; in assay [3] it was 4600 nM. In addition, in assay [3], the GI50 stood at 1400 nM.
As for `Cc1c2oc3c(C)ccc(C(=O)N[C@@H]4C(=O)N[C@H](C(C)C)C(=O)N5CCC[C@H]5C(=O)N(C)CC(=O)N(C)[C@@H](C(C)C)C(=O)O[C@@H]4C)c3nc-2c(C(=O)N[C@@H]2C(=O)N[C@H](C(C)C)C(=O)N3CCC[C@H]3C(=O)N(C)CC(=O)N(C)[C@@H](C(C)C)C(=O)O[C@@H]2C)c(N)c1=O` [DACTINOMYCIN] (I: T[dV]P[Sar][NMeV] / II: T[dV]P[Sar][NMeV]; ester I:1-I:C, II:1-II:C; linker I:N-II:N via Actinocin(1to9)), the zone of inhibition at 50 µg/disc was found to be 20 mm in the assay with Escherichia coli, 55 mm in the assay with Bacillus subtilis and 30 mm with Staphylococcus aureus. Further, the GI50 in assay [1] (Homo sapiens, HepG2) is 1.2 nM; in assay [2] (Homo sapiens, HM02), 1.6 nM; in assay [3], 1.9 nM. Further, the TGI in assay [1] (Homo sapiens, HepG2) came out at 52 nM; in assay [2] (Homo sapiens, HM02), 6.4 nM; in assay [3], 8.8 nM.
Regarding `Cc1c2oc3c(C)ccc(C(=O)N[C@@H]4C(=O)N[C@H](C(C)C)C(=O)N5[C@H](C(=O)N(C)CC(=O)N(C)[C@@H](C(C)C)C(=O)O[C@@H]4C)[C@@H](O)C[C@@H]5C)c3nc-2c(C(=O)N[C@@H]2C(=O)N[C@H](C(C)C)C(=O)N3CCC[C@H]3C(=O)N(C)CC(=O)N(C)[C@@H](C)C(=O)O[C@@H]2CCl)c(N)c1=O` [ACTINOMYCIN G2], the zone of inhibition at 50 µg/disc in the assay with Escherichia coli was 15 mm; in the assay on Bacillus subtilis, 45 mm; in the assay with Staphylococcus aureus, 27 mm. In addition, the GI50 in assay [1] (Homo sapiens, HepG2) came out at 2.9 nM; in assay [2] (Homo sapiens, HM02) it was 1.3 nM; in assay [3], 3.9 nM. Also, the TGI in assay [1] (Homo sapiens, HepG2) is 18 nM; in assay [2] (Homo sapiens, HM02), 4.3 nM; in assay [3], 12 nM.
Regarding `Cc1c2oc3c(C)ccc(C(=O)N[C@@H]4C(=O)N[C@H](C(C)C)C(=O)N5[C@H](C(=O)N(C)CC(=O)N(C)[C@@H](C(C)C)C(=O)O[C@@H]4C)[C@@H](O)C[C@@H]5C)c3nc-2c(C(=O)N[C@@H]2C(=O)N[C@H](C(C)C)C(=O)N3CCC[C@H]3C(=O)N(C)CC(=O)N(C)[C@@H](C)C(=O)O[C@@H]2CO)c(N)c1=O` [ACTINOMYCIN G3], the results for the zone of inhibition at 50 µg/disc with Escherichia coli, in the assay on Bacillus subtilis and in the assay on Staphylococcus aureus were 0 mm, 33 mm and 21 mm, respectively. For the same molecule, the concentration for 50% growth inhibition (GI50) in assay [1] (Homo sapiens, HepG2) stood at 1100 nM; in assay [2] (Homo sapiens, HM02) it was 130 nM; in assay [3], 460 nM. Further, the TGI is greater than 7900 nM in assay [1] (Homo sapiens, HepG2); 550 nM in assay [2] (Homo sapiens, HM02); 1600 nM in assay [3].
`Cc1c2oc3c(C)ccc(C(=O)N[C@@H]4C(=O)N[C@H](C(C)C)C(=O)N5[C@H](C(=O)N(C)CC(=O)N(C)[C@@H](C(C)C)C(=O)O[C@@H]4C)[C@@H](O)C[C@@H]5C)c3nc-2c(C(=O)N[C@@H]2C(=O)N[C@H](C(C)C)C(=O)N3CCC[C@H]3C(=O)N(C)CC(=O)N(C)[C@@H](C)C(=O)O[C@@H]2C)c(N)c1=O` [ACTINOMYCIN G4]: the GI50 in assay [1] (Homo sapiens, HepG2) was 640 nM; in assay [2] (Homo sapiens, HM02) it was 65 nM; in assay [3] it was 400 nM. In addition, the TGI came to 1400 nM in assay [1] (Homo sapiens, HepG2); 520 nM in assay [2] (Homo sapiens, HM02); 1500 nM in assay [3].
